Laboratory results published in ChEMBL document CHEMBL1201862, “PubChem BioAssay data set” (2004).
The source made the active and inactive calls.

Columns and labels:
[1] = target: Induced myeloid leukemia cell differentiation protein Mcl-1 (Homo sapiens, UniProt Q07820); type: functional
[2] = cells
[3] = HEp-2 cell cytotoxicity, dose response, cytotoxicity control for RSV inhibitor project, HTS (AID 2410); type: functional; conditions: human respiratory syncytial virus
[4] = target: Peroxisome proliferator-activated receptor gamma/Nuclear receptor coactivator 3 (Homo sapiens, UniProt P37231); assay: (§1) TR-FRET dose response biochemical High Throughput Screening assay for agonists of the steroid receptor coactivator 3 (SRC-3) recruitment by the peroxisome proliferator-activated receptor gamma (PPAR gamma): non-selective agonists. [Related pubchem assays: 1301 (Confirmation screen.), 1048 (Primary screen.)]; type: functional
Peroxisome proliferator-activated receptor gamma/Nuclear receptor coactivator 3, sequence (P37231 whole entry): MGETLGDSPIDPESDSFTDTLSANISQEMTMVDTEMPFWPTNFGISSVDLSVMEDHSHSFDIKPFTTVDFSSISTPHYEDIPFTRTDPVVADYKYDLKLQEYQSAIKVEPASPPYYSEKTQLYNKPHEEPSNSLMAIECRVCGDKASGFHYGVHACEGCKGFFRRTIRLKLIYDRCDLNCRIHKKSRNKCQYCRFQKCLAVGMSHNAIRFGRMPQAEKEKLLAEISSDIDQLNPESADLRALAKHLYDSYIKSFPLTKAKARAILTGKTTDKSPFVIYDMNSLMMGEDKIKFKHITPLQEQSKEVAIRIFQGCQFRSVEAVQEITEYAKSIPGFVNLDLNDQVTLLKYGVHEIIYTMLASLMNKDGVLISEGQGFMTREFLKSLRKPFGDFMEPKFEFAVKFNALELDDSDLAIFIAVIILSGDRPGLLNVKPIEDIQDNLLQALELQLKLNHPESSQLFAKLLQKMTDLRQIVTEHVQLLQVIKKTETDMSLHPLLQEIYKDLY
Peroxisome proliferator-activated receptor gamma/Nuclear receptor coactivator 3, sequence (Q9Y6Q9 whole entry, further chain): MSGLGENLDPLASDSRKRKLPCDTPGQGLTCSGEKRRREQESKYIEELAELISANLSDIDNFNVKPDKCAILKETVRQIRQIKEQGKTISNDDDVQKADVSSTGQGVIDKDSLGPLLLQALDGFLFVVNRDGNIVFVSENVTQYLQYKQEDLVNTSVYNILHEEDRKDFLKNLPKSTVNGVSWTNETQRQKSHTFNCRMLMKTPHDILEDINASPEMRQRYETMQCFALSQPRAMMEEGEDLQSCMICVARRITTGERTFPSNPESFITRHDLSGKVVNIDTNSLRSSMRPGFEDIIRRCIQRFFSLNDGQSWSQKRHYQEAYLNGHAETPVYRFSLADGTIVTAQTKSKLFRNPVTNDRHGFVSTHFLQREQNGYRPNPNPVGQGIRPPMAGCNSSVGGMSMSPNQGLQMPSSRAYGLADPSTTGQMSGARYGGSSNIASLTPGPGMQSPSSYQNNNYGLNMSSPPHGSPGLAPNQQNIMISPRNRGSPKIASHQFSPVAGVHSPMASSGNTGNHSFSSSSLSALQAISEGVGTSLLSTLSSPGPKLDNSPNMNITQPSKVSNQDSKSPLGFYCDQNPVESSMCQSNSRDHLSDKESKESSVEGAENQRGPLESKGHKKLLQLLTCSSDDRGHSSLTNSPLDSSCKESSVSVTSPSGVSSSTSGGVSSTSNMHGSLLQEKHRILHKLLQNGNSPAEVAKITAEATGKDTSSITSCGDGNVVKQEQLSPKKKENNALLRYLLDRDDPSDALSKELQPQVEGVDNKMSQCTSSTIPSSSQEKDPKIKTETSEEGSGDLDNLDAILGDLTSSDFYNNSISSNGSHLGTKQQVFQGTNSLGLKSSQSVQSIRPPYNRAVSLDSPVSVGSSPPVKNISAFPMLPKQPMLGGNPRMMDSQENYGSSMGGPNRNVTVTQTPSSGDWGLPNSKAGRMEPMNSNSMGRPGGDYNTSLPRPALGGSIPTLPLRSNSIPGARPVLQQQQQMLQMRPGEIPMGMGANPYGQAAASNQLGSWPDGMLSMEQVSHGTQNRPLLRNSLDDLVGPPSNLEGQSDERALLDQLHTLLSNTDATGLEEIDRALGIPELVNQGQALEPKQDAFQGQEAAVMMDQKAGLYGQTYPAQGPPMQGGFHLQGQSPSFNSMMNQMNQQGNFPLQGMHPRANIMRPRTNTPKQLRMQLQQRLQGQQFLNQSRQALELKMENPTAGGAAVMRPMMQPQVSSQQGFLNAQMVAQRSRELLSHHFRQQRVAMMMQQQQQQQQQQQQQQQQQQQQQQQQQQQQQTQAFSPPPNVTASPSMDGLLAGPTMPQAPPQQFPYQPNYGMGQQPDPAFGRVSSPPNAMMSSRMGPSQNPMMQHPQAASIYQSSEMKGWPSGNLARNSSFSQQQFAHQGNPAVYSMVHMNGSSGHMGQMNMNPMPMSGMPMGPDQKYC

[5] = target: Peroxisome proliferator-activated receptor gamma/Nuclear receptor coactivator 1 (Homo sapiens, UniProt P37231); assay: as §1, with “1 (SRC-1)” for “3 (SRC-3)”, “assays (depositor defined):AID1300, AID1808, AID504735, AID631]” for “assays: 1301 (Confirmation screen.), 1048 (Primary screen.)]”; type: protein assay
Peroxisome proliferator-activated receptor gamma/Nuclear receptor coactivator 1, sequence (P37231 whole entry): as the sequence (P37231 whole entry) above
Peroxisome proliferator-activated receptor gamma/Nuclear receptor coactivator 1, sequence (Q15788 whole entry, further chain): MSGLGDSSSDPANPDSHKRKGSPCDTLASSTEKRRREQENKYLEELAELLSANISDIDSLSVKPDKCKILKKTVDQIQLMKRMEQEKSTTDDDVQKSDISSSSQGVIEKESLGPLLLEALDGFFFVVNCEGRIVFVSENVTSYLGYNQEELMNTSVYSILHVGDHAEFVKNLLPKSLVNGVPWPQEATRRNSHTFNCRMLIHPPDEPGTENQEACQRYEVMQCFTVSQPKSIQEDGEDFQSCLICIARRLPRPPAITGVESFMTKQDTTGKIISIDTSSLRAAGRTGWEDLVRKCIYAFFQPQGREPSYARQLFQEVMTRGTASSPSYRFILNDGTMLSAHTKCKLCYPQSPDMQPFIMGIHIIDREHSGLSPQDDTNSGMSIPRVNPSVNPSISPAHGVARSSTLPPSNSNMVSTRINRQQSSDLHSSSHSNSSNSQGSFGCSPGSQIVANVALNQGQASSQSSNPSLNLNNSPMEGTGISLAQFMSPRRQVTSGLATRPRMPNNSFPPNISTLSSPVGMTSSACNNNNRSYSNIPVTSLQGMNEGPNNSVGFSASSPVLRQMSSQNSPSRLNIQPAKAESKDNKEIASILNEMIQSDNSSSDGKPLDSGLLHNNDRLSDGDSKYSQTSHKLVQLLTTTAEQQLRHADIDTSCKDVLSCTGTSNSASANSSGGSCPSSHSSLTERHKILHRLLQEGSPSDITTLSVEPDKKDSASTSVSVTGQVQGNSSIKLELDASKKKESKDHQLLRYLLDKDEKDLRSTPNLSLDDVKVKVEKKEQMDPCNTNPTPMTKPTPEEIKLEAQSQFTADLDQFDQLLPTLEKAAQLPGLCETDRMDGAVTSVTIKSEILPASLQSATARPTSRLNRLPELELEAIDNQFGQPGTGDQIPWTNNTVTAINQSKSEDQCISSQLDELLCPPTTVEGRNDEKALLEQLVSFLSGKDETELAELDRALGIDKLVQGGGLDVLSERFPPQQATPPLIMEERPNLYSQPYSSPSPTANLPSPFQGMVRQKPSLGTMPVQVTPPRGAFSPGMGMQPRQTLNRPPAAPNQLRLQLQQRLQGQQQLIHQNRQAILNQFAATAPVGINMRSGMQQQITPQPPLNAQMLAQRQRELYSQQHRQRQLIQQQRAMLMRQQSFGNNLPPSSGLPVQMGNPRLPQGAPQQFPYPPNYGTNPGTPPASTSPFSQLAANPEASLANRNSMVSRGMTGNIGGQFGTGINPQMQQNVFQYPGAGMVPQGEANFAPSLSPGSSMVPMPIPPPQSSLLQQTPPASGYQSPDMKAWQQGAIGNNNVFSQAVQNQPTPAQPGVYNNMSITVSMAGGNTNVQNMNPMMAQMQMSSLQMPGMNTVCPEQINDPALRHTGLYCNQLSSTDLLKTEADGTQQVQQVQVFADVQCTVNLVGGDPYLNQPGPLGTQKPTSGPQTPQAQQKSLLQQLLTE

[6] = target: Peroxisome proliferator-activated receptor gamma/Nuclear receptor coactivator 2 (Homo sapiens, UniProt P37231); assay: TR-FRET dose response biochemical High Throughput Screening assay for agonists of the steroid receptor coactivator 2 (SRC-2) recruitment by the peroxisome proliferator-activated receptor gamma (PPAR gamma): non-selective agonists. [Related pubchem assays: 1297, 1032 ]; type: functional
[7] = target: Glyceraldehyde-3-phosphate dehydrogenase (Homo sapiens, UniProt P04406)
Glyceraldehyde-3-phosphate dehydrogenase, sequence (P04406 whole entry): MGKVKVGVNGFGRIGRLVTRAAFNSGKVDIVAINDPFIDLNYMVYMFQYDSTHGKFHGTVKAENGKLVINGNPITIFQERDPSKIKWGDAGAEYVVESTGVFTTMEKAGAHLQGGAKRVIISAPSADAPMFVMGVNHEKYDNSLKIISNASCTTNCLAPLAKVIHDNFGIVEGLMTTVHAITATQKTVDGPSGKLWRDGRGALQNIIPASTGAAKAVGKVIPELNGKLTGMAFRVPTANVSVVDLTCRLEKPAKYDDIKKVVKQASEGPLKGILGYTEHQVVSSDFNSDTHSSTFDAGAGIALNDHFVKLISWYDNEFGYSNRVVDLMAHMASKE

[8] = target: FAD-linked sulfhydryl oxidase ALR (Homo sapiens, UniProt P55789); assay: inhibitors of human ALR sulfhydryl oxidase, dose response, biochemical, H2O2 detection, luminescence, cherry-pick (AID 493248)
FAD-linked sulfhydryl oxidase ALR, sequence (P55789 whole entry): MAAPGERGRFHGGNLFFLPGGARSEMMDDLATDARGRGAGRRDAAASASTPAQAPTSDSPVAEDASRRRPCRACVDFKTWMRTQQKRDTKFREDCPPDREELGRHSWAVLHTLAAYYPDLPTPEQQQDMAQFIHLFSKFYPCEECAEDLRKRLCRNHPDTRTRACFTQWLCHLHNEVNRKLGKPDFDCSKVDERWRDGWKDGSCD

[9] = target: T1, Polyadenylate-binding protein 1 (Homo sapiens, UniProt P11940); assay: PABP1 MLLE–PAM2 binding inhibitor potency, dose response, biochemical, fluorescence polarization, FITC-PAM2 peptide (AID 602259); type: functional; conditions: read-out: IC50_Mean
[10] = target: T2, Estrogen receptor beta (Homo sapiens, UniProt Q92731);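 note: recombinant ER-beta bound to coactivator SRC1 peptide in presence of estradiol agonist; inhibitors block coactivator peptide binding and lower the FRET signal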
T2 sequence (Q92731 whole entry): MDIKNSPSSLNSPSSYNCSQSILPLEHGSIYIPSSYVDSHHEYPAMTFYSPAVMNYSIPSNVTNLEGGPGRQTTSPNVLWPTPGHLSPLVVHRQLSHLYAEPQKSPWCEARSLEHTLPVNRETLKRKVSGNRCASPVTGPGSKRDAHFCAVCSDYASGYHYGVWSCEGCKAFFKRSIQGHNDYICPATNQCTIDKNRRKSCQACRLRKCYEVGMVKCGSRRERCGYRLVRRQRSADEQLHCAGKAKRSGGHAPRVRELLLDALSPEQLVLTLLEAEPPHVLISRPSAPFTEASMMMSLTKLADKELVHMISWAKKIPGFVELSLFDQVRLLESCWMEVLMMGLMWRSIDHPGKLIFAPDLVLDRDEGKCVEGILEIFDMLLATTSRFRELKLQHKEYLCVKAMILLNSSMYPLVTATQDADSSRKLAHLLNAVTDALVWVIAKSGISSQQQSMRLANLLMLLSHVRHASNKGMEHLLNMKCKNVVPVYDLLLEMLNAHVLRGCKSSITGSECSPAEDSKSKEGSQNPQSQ

[11] = target: T2, Estrogen receptor beta; assay: ERβ–SRC-3 coactivator interaction inhibitors, confirmation, orthogonal assay, biochemical, ELISA, streptavidin-HRP readout (AID 1060)
[12] = target: T1, Polyadenylate-binding protein 1; assay: PABP1 MLLE–PAM2 interaction inhibitors, dose response, miRNA deadenylation inhibitor project, biochemical, fluorescence polarization, Cy5-PAM2 peptide, secondary (AID 602260); type: functional; conditions: read-out: IC50_Mean
[13] = cytotoxicity in KRAS-transformed pancreatic duct cells, primary screen, cell-based, fluorescence, HTS (AID 431); type: functional; conditions: Homo sapiens;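 note: cell line used: HPDE-C7K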
[14] = cytotoxicity in HPDE-C7 cells, cell-based, fluorescence, HTS (AID 430); type: functional; conditions: Homo sapiens
[15] = cells; remark: listed apart in the source
[16] = cytotoxicity toward NIH3T3 fibroblasts, dose response, counter-screen, cell-based, ATP luminescence, mouse fibroblasts (AID 2010); type: functional;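 note: cells exposed to compound for about 90 hours before reading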
[17] = inhibitors of intracellular T. cruzi replication, confirmation, NIH3T3 host cells, beta-gal luminescence (AID 2044); type: functional, cell-based;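 note: intracellular parasites grown in NIH/3T3 mouse fibroblasts as host cells; luminescent beta-galactosidase reporter signal from transgenic T. cruzi replicating inside host cells; inhibitors lower the luminescence signal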
[18] = target: T3, Short transient receptor potential channel 4 (Mus musculus, UniProt Q9QUQ5); assay: mouse TRPC4 channel inhibitors, dose response, cell-based, HEK293 TRPC4/mu-opioid, Fluo-4 calcium (AID 434942); type: functional;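 note: potency of inhibitors blocking the TRPC4 calcium response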
T3 sequence (Q9QUQ5 whole entry): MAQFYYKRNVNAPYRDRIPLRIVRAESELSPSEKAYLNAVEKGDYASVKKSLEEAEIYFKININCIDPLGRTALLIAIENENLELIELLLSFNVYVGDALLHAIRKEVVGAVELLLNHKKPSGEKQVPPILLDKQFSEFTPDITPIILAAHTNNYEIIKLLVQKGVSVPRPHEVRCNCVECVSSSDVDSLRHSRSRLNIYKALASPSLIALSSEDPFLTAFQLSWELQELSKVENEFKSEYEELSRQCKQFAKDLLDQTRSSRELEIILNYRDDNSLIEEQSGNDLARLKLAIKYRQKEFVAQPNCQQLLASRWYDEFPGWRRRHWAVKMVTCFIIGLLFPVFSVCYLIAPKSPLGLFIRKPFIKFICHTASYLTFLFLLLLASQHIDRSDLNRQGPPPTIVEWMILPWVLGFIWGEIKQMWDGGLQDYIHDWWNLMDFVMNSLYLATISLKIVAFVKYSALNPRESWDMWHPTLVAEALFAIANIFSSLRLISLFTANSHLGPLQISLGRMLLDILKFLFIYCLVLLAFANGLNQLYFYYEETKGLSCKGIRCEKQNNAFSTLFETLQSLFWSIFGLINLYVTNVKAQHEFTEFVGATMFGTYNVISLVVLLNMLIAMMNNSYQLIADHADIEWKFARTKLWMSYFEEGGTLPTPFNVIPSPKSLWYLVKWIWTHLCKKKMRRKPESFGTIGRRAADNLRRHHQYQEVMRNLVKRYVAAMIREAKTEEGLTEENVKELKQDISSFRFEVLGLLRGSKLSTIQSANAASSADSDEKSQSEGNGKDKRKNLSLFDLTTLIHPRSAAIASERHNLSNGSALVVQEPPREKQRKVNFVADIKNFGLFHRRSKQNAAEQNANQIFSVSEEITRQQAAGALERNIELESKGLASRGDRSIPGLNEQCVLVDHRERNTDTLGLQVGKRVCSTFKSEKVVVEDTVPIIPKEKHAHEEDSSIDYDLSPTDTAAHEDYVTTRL

[19] = target: T4, Estrogen receptor (Homo sapiens, UniProt P03372);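 note: potency for inhibiting coactivator peptide recruitment to the receptor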
T4 sequence (P03372 whole entry): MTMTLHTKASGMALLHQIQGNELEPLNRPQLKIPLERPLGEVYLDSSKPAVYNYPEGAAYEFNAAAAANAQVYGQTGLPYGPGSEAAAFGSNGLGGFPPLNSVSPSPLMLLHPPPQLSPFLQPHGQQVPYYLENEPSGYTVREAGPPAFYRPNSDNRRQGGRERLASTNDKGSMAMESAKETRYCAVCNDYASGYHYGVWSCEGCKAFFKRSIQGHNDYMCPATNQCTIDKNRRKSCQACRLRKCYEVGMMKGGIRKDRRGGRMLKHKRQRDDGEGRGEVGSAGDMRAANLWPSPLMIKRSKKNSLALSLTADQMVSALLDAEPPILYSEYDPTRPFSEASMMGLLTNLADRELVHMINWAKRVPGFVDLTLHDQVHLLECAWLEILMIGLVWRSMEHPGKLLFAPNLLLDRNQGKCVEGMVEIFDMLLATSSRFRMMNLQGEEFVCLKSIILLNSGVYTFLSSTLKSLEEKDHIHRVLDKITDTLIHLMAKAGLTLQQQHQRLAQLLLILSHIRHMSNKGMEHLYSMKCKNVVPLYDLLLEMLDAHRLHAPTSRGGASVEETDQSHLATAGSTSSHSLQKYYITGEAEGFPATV

[20] = THP-1 cell cytotoxicity, dose response, cytotoxicity control for non-replicating M. tuberculosis project (AID 489025); type: functional
[21] = target: Large T antigen (Simian virus 40, UniProt P03070); type: functional, Betapolyomavirus macacae;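 note: Confirmatory-stage PubChem screen for compounds that inhibit SV40 T antigen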
[22] = target: T5, Zinc finger protein mex-5 (Caenorhabditis elegans, UniProt Q9XUB2); assay: MEX-5/TCR-2 RNA interaction inhibitors, dose response, biochemical, C. elegans, fluorescence polarization (AID 1960)
T5 sequence (Q9XUB2 whole entry): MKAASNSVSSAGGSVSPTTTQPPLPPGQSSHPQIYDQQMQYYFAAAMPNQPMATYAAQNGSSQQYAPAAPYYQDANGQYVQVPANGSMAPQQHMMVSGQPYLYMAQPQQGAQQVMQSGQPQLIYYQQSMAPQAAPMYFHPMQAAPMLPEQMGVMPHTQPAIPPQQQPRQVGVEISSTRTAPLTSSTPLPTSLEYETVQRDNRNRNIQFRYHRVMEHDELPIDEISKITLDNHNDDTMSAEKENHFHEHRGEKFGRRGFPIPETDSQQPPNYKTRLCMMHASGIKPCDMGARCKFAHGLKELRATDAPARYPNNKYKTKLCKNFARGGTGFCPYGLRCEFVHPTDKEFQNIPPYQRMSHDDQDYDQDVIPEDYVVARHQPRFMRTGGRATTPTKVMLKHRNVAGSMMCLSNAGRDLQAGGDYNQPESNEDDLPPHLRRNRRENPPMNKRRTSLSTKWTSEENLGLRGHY

[23] = target: Genome polyprotein (dengue virus type 2, UniProt P29990); assay: Dengue-2 NS5 methyltransferase inhibitors, primary screen, biochemical, confirmation dose response (AID 588689); type: functional
[24] = cells; type: functional
[25] = target: T6, RNA-binding protein pos-1 (Caenorhabditis elegans, UniProt G5EF15); assay: inhibitors of POS-1/mex-3 RNA binding, dose response, biochemical, fluorescence polarization (AID 1964);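 note: purified POS-1 fused to maltose binding protein made in E. coli; potency of compounds blocking POS-1 binding to fluorescent RNA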
T6 sequence (G5EF15 whole entry): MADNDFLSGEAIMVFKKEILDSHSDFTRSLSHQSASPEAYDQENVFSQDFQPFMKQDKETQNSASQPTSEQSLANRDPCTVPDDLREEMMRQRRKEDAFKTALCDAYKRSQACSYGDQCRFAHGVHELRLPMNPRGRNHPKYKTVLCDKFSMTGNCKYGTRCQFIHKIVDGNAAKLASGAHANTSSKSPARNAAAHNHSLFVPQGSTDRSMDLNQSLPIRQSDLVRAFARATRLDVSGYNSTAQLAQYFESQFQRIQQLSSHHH

[26] = system: H9c2; assay: cells; type: functional, cell-based; conditions: Rattus norvegicus, H9c2, Myocardium;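 note: confirmatory concentration-response retest of ultra-high-throughput screening hits for modulation of myocardial damage; cell death induced by hydrogen peroxide oxidative stress; compound pretreatment for 60 min then peroxide exposure for 2 h; potency is for protecting the cells against peroxide damage rather than for killing them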
[27] = growth suppression of beta-catenin-knockout colon cells, dose response, cell-based, HCT116, human colon tumor (AID 1045); type: functional;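 note: HCT116 colon tumor cells with beta catenin knocked out; cells exposed to compound for 60 hours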
[28] = growth suppression of PTEN-null colon cells, dose response, cell-based, HCT116 PTEN knockout (AID 1047); type: functional;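 note: HCT116 colon tumor cells with PTEN knocked out; cells exposed to compound for 60 hours before readout; potency for loss of cell viability measured by luminescence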

For `CCN(CC)c1nc2c3c(nc4c(c3c1C#N)CC(=O)N4c1ccc(Cl)cc1)NC(C)=N2`, the IC50 [1] was 2.18 µM (active).

For `COC(=O)C1=C(C)N(Cc2ccccc2)C(=O)N[C@H]1c1cccc(C(F)(F)F)c1`, the IC50 [2] was 8.17 µM (active) and the CC50 [3] was 32.9 µM (active).

For `CC(C)(C)CC(=O)NC(=S)NCCc1ccccc1`, the IC50 [2] was 18.4 µM (active) and the CC50 [3] was 39.4 µM (active).

With `Cn1c(=O)cc(SCC(=O)NCc2cccnc2)c2ccccc21` the EC50 [4] was > 79.4 µM (not active), the EC50 [5] was > 79.4 µM (inactive) and the EC50 [6] was > 79.4 µM (not active).

With `Cc1ccc(C2=NC(=O)/C(=C/C=C/c3ccc([N+](=O)[O-])o3)S2)cc1` the IC50 [7] was > 100 µM (not active).

For `CCC(C(=O)Nc1nnc(-c2ccco2)s1)c1ccccc1` (configuration not stated), the EC50 [4] was > 79.4 µM (not active), the EC50 [5] was > 79.4 µM (inactive) and the EC50 [6] was 43.6 µM (not active).

In the case of `O=C(CN1CCN(c2ccc(O)cc2)CC1)Nc1cc([N+](=O)[O-])ccc1Cl`, the AC50 [8] is reported as 1.24 µM (active) and the IC50 [1] is reported as 5.07 µM (active).

In the case of `Nc1nc(-c2ccco2)c(-c2ccco2)s1`, the IC50 [9] is reported as > 66 µM (inactive), the IC50 [10] is reported as > 50 µM (not active) and the IC50 [11] is reported as 101 µM (not active). For the same compound, the IC50 [12] was > 66 µM (inactive).

With `O=C(CCN1CCc2ccccc2C1)c1ccc2c(c1)OCCO2` the EC50 [13] was 11.5 µM (active) and the EC50 [14] was 9.07 µM (active).

In the case of `Cc1ccc(-n2c(S)nnc2-c2ccccc2)cc1`, the EC50 [4] is reported as > 79.4 µM (not active), the EC50 [5] is reported as 33.6 µM (inactive) and the EC50 [6] is reported as 18.4 µM (not active).

For `CN(CC1CCCN(CCc2cccc(C(F)(F)F)c2)C1)C(=O)c1cc2ccccc2o1` (configuration not stated), the EC50 [15] was 0.082 µM (active), the EC50 [16] was 8.57 µM (active) and the EC50 [17] was < 0.1 µM (active). For the same compound, the EC50 [18] was 0.668 µM (active).

With `CCOC(=O)Cc1cc(O)n2nc(-c3ccc(C)cc3)cc2n1` the IC50 [10] was 6.5 µM (active), the IC50 [11] was 46.7 µM (not active) and the IC50 [19] was 13.9 µM (active).

For `Cc1ccc2nc(N(CCCN(C)C)C(=O)c3cc4ccccc4oc3=O)sc2c1`, the EC50 [15] was 0.116 µM (active), the EC50 [16] was > 60 µM (not active) and the EC50 [17] was < 0.1 µM (active).

With `O=[N+]([O-])c1cc(C(F)(F)F)ccc1N1CCC(O)CC1` the IC50 [2] was 19.8 µM (active) and the CC50 [3] was 47.2 µM (active).

In the case of `COc1cccc(N2C(=O)NC(=O)/C(=C/c3ccc([N+](=O)[O-])s3)C2=O)c1`, the CC50 [20] is reported as 37.1 µM (active), the IC50 [21] is reported as 47.3 µM (active) and the CC50 [3] is reported as 13.8 µM (active). The EC50 [22] was 27.2 µM (active), the IC50 [23] was 38 µM (active) and the IC50 [24] was 27.6 µM (active). For the same compound, the EC50 [25] was 34.4 µM (active).

For `O=C(CSc1nnc(SCC(=O)c2ccco2)s1)c1ccco1`, the IC50 [10] was 6.51 µM (active), the IC50 [11] was > 109 µM (not active) and the IC50 [19] was 21.2 µM (active).

In the case of `CN(C)C1=C(Cl)C(=O)N(c2cccc(C(F)(F)F)c2)C1=O`, the IC50 [7] is reported as > 50 µM (inconclusive).

With `C=CCn1cnc2c(c1=O)c1nc3ccccc3nc1n2/N=C/c1cc(OC)c(OC)c(OC)c1` the EC50 [13] was 5.68 µM (active), the EC50 [14] was 11.2 µM (active) and the IC50 [26] was > 79 µM (inactive). The EC50 [27] was 4.67 µM (active) and the EC50 [28] was 4.4 µM (active).

In the case of `COc1cc(S(=O)(=O)Nc2cccnc2)c(OC)cc1Cl`, the IC50 [7] is reported as > 100 µM (not active).
